Measurements from patent US20250281496A1, “METHODS OF TREATING NEUROPATHY USING FORETINIB AND COMPOSITIONS THEREOF” (INDIANA UNIVERSITY RESEARCH AND TECHNOLOGY CORPORATION, priority 2022, published 2025).

Legend:
[1] = Potential side effects and body weight under daily oral Foretinib in STZ-diabetic mice; assay type: in vivo
Description: The primary objective of these experiments was to determine the effect of oral Foretinib on cutaneous innervation density in an experimental diabetic neuropathy. The numbers of animals needed for these experiments were determined by power analysis based on preliminary experiments assessing the cutaneous innervation density in diabetic and non-diabetic mice. A 50% increased nerve fiber density compared to the diabetic control was considered scientifically relevant, requiring a minimum of n=5 animals per group to achieve a power of 0.9 when assuming a standard deviation (SD) of 0.01 for all groups (normally distributed, two-sided). Animals were randomly allocated to experimental groups prior to induction of diabetes and the investigators were blinded during outcome assessments. Two experimental animals allocated to the Foretinib treated group were excluded from the experiment after not responding to the STZ injections. No outliers were excluded from the analysis. After five weeks, the experiment was terminated because 4 of 8 animals reached a predefined humane endpoint of greater than 15% weight loss compared to their pre-diabetic weight. The scheduled experimental endpoint was 12 weeks post-STZ injection. […]

[2] = system: experimental diabetic neuropathy; assay: Intraepidermal nerve fiber density (IENFD) in plantar skin of STZ-diabetic mice; assay type: in vivo
Description: The primary objective of these experiments was to determine the effect of oral Foretinib on cutaneous innervation density in an experimental diabetic neuropathy. The numbers of animals needed for these experiments were determined by power analysis based on preliminary experiments assessing the cutaneous innervation density in diabetic and non-diabetic mice. A 50% increased nerve fiber density compared to the diabetic control was considered scientifically relevant, requiring a minimum of n=5 animals per group to achieve a power of 0.9 when assuming a standard deviation (SD) of 0.01 for all groups (normally distributed, two-sided). Animals were randomly allocated to experimental groups prior to induction of diabetes and the investigators were blinded during outcome assessments. Two experimental animals allocated to the Foretinib treated group were excluded from the experiment after not responding to the STZ injections. No outliers were excluded from the analysis. After five weeks, the experiment was terminated because 4 of 8 animals reached a predefined humane endpoint of greater than 15% weight loss compared to their pre-diabetic weight. The scheduled experimental endpoint was 12 weeks post-STZ injection.
A total of 25 adult (24-28g), transgenic mice with a genetic black six background were included. […]

[3] = system: human iPSC-derived cultured MNs; assay: Thapsigargin- and Tunicamycin-induced death of human iPSC-derived motor neurons; assay type: cell-based; details: 1 μM Thapsigargin or 1 μM Tunicamycin, 0.5 uM Foretinib, 48 hrs
Description: A) Rat sympathetic neurons grown in compartmented cultures for one week in the presence of NGF were switched into the indicated conditions for 48 h and immunostained for βIII-tubulin (white). Schematics on the left show the configurations used. In the top panels, NGF was maintained in all compartments. In the center and bottom panels, NGF was withdrawn from all compartments. At the bottom panel and 500 nM foretinib (Foret) added to one of the sides and the center compartment. Fluorescence images show βIII-tubulin-positive axons in the sides compartment. At the right, enlarged images of the axons per condition. While the NGF deprived neurons degenerated (axonal beading and degradation in the central panel), Foretinib supplemented (lower panel) axons kept growing Red arrow at the top of the image indicates the distance of the axonal extension during 48 h since NGF withdrawal. Size bar: […].B) MNs were differentiated from healthy human iPS (Line ID 1016A)^62 as described^63. 3 day old MNs were treated with either 1 μM of Thapsigargin (Thaps) or 1 μM Tunicamycin (Tuni) and/or with either 0.5 uM of Foretinib. […] C) Quantitative representation of the results as in B. Error bars represent standard error; *p<0.05; ***p<0.005; t-test. […] E) Quantitative representation of changes in mouse body weight in dependence of the indicated IP daily doses of Foretinib.

[4] = system: TDP-43 mutant Zebra fish larvae; assay: TDP-43 mutant Zebra fish larvae ALS model; assay type: in vivo; design: motor neuron axon length and NMJ formation: dose or concentration left out as unconfirmed

COc1cc2c(Oc3ccc(NC(=O)C4(C(=O)Nc5ccc(F)cc5)CC4)cc3F)ccnc2cc1OCCCN1CCOCC1 [Foretinib, N1-[3-Fluoro-4-({6-methoxy-7-[3-(morpholin-4-yl)propoxy]quinolin-4-yl}oxy)phenyl]-N′1-(4-fluorophenyl)cyclopropane-1,1-dicarboxamide]
relative body weight change versus pre-diabetic weight ([1]; 30 mg/kg oral daily, 5 weeks post-injection, group mean): < −15%
signs of increased distress ([1]; 30 mg/kg orally via daily gavage, after four weeks of daily treatment): lethargic behavior, ruffled fur, and weight loss
intraepidermal nerve fiber density (IENFD), plantar skin ([2]; 30 mg/kg oral daily, 5 weeks post-diabetes induction, versus other diabetic groups): similarly reduced IENFD
reduction in epidermal nerve fiber density compared to healthy mice ([2]; all diabetic groups incl. Foretinib 30 mg/kg/day oral, five weeks after diabetes induction): 25%
rescue of ER-stressor induced motor neuron death [3]: rescued Thapsigargin-and Tunicamycin-induced death
motor neuron axon length and NMJ formation ([4]; 2 days old larvae exposed to Foretinib): longer and forms more NMJ
swimming deficits ([4]; TDP-43 mutant larvae, data not shown): rescuing its swimming deficits
